ChEMBL document CHEMBL4665906, “Novel Potassium Channel Inhibitors” (ACS Med Chem Lett, 2020)
pIC50: −log10 of the molar value.

Target: Intermediate conductance calcium-activated potassium channel protein 4 (Homo sapiens, UniProt O15554)
Assay: Inhibition of Kca3.1 in human erythrocytes
Type: cell-based

Intermediate conductance calcium-activated potassium channel protein 4, sequence (O15554 whole entry): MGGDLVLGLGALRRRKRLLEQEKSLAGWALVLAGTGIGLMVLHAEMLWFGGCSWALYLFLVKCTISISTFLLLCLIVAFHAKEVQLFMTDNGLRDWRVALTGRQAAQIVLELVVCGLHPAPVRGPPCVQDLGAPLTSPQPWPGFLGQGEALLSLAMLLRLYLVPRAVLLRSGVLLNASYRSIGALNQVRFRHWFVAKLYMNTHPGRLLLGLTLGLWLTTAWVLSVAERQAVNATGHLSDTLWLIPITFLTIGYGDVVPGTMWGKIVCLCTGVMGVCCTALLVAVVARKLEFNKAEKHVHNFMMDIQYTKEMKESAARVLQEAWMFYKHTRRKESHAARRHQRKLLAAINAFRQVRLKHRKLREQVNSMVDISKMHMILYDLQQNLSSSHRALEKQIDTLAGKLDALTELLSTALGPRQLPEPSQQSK

| pIC50 | Compound |
| --- | --- |
| 8.09 | COC(=O)N(C[C@H]1CCCN1C)C1(c2ccc(F)c(C(F)(F)F)c2)CC1 |
| 8.07 | COC(=O)N(CC(C)(C)N)C1(c2ccc(F)c(C(F)(F)F)c2)CC1 |
| 8.06 | COC(=O)N(C[C@@H]1CCCN1)C1(c2ccc(F)c(OC(F)(F)F)c2)CC1 |
